Reference: US20230181541A1, “COMPOSITIONS AND METHODS FOR TREATING OBSESSIVE-COMPULSIVE DISORDER” (Biohaven Therapeutics Ltd., priority 2020, published 2023)
Where two headings read alike, the source gives them in different places.

Test system: OCD patients with inadequate response to standard of care treatment
Conditions: for YBOCS Compulsions Subscale Change from Baseline, LS Mean / YBOCS Compulsions Subscale Change from Baseline, Troriluzole vs Placebo Difference Estimate / YBOCS Obsessions Subscale Change from Baseline, LS Mean / YBOCS Obsessions Subscale Change from Baseline, Troriluzole vs Placebo Difference Estimate / YBOCS Total Change from Baseline, Troriluzole vs Placebo Difference Estimate / YBOCS Total Change from Baseline, LS Mean / YBOCS Total Score Change from Baseline, LS Mean: MITT data set, MMRM; for YBOCS Total Score Change from Baseline, LS Mean: only subjects <= median baseline YBOCS total = 26, not validated
Description: In some embodiments of the invention, the individual treated according to the claimed method is assessed using the Yale Brown Obsessive Compulsive Scale (“Y-BOCS”). See Goodman et al., Arch. Gen. Psychiatry, 1989, 46, 1006-1011. According to this system, an individual is scored using a symptom checklist by asking the individual about specific obsessions and compulsions. Such symptoms are broadly categorized as aggressive obsessions, contamination obsessions, sexual obsessions, hoarding/saving obsessions, religious obsessions, obsession with need for symmetry or exactness, miscellaneous obsessions, somatic obsessions, cleaning/washing compulsions, checking compulsions, repeating rituals, counting compulsions, ordering/arranging compulsions, and miscellaneous compulsions. Each of these categories is further divided by subcategory of more specific symptoms. Individuals are scored according to the answers provided. Scores range from 0-7 for subclinical, 8-15 for mild, 16-23 for moderate, 24-31 for severe, and 32-40 for extreme severity.
Subjects receive a dose of 140 mg QD for the first four (4) weeks, and the dose is then increased to 200 mg QD for the duration of the study. Down titration is only allowed to address tolerability issues**. Eligible subjects include those who perceived benefit in earlier phases or for whom the Principal Investigator (PI) believes extended treatment with BHV-4157 would offer an acceptable risk-benefit profile***. Subjects start the Extension phase on the dose that was taken at the end of the Randomization phase. Subjects receiving placebo in the randomization phase are blindly switched to a 140 mg dose QD for the first 4 week, and the dose is then increased to 200 mg QD (at the Week 4 visits). Down titration is only allowed to address tolerability issues. All visits after Week 4 are open-label****.
Subjects who are stable on Standard of Care (SOC) medication and having an inadequate response to SOC are randomized to additionally receive placebo (QD) or troriluzole for 12 weeks (200 mg QD, after four weeks at 140 mg QD). Subjects completing the Randomization Phase are offered approximately 48 weeks of open-label treatment. The study is conducted from December 2017 to June 2020 with 242 subjects randomized at over 56 sites. The full study details are available online at https://clinicaltrials.gov/ct2/show/study/NCT03299166?term=biohaven&cond=Obsessive-Compulsive+Disorder&draw=2&rank=1.
The study involves subjects with a primary diagnosis of OCD as per Diagnostic and Statistical Manual of Mental Disorders, Fifth Edition, as confirmed by the MINI at screening.
Duration of the subject's illness must be equal to or greater than 1 year.
The Clinical Global Impression Score (CGI-S) must be equal to or greater than 4 at screening and baseline.
Subjects are excluded with a history of more than two (2) previous failed treatment trials of SSRIs, clomipramine, venlafaxine, or desvenlafaxine, (not including the current SSRI trial) given for an adequate duration at an adequate dose as defined by the MGH-TRQ-OCD.
Subjects are excluded if they display acute suicidality or suicide attempt or self-injurious behavior in the last 12 months.
Subjects are excluded if they have a Brown Assessment of Beliefs (BABS) score of greater than 17 at screening and baseline.
Use of a stimulant, neuroleptic (antipsychotic), mood stabilizer and glutamate agent (e.g., topiramate, lamotrigine, N-acetylcysteine, ketamine, memantine, sodium valproate) is prohibited within the 4 weeks prior to screening and during the study.
Current daily anxiolytic or benzodiazepine use is prohibited.

[1] = Week 4, only subjects > baseline YBOCS = 26 (median)
[2] = Week 8, only subjects > baseline YBOCS = 26 (median)
[3] = Week 12, only subjects > baseline YBOCS = 26 (median)

Which results are given for `CN(CC(=O)Nc1nc2ccc(OC(F)(F)F)cc2s1)C(=O)CNC(=O)CN` [Troriluzole]?
Y-BOCS outcome versus placebo (in words) (200 mg once daily as adjunctive therapy, all study timepoints (weeks 4 to 12)): consistent numerical improvement over placebo; YBOCS Compulsions Subscale Change from Baseline, LS Mean (Week 4): −1.72; YBOCS Compulsions Subscale Change from Baseline, Troriluzole vs Placebo Difference Estimate (Week 4): −0.44; YBOCS Obsessions Subscale Change from Baseline, LS Mean (Week 4): −1.67; YBOCS Obsessions Subscale Change from Baseline, Troriluzole vs Placebo Difference Estimate (Week 4): −0.02; YBOCS Total Change from Baseline, Troriluzole vs Placebo Difference Estimate (Week 4): −0.5; YBOCS Total Change from Baseline, LS Mean (Week 4, 140 mg QD first 4 weeks then 200 mg QD, added to SOC): −3.4 points; YBOCS Total Score Change from Baseline, LS Mean (Week 4): −2.8; YBOCS Total Change from Baseline, LS Mean [1]: −4.1 points; YBOCS Total Change from Baseline, Troriluzole vs Placebo Difference Estimate [1]: −0.6; YBOCS Compulsions Subscale Change from Baseline, LS Mean (Week 8): −2.61; YBOCS Compulsions Subscale Change from Baseline, Troriluzole vs Placebo Difference Estimate (Week 8): −1.20; YBOCS Obsessions Subscale Change from Baseline, LS Mean (Week 8): −2.50; YBOCS Obsessions Subscale Change from Baseline, Troriluzole vs Placebo Difference Estimate (Week 8): −0.36; YBOCS Total Change from Baseline, Troriluzole vs Placebo Difference Estimate (Week 8): −1.5; YBOCS Total Change from Baseline, LS Mean (Week 8, 140 mg QD first 4 weeks then 200 mg QD, added to SOC): −5.1 points; YBOCS Total Score Change from Baseline, LS Mean (Week 8): −4.4; YBOCS Total Change from Baseline, LS Mean [2]: −6.0 points; YBOCS Total Change from Baseline, Troriluzole vs Placebo Difference Estimate [2]: −2.9; YBOCS Compulsions Subscale Change from Baseline, LS Mean (Week 12): −3.01; YBOCS Compulsions Subscale Change from Baseline, Troriluzole vs Placebo Difference Estimate (Week 12): −0.64; YBOCS Obsessions Subscale Change from Baseline, LS Mean (Week 12): −2.91; YBOCS Obsessions Subscale Change from Baseline, Troriluzole vs Placebo Difference Estimate (Week 12): −0.36; YBOCS Total Change from Baseline, Troriluzole vs Placebo Difference Estimate (Week 12): −1.0; YBOCS Total Change from Baseline, LS Mean (Week 12, 140 mg QD first 4 weeks then 200 mg QD, added to SOC): −5.9 points; YBOCS Total Score Change from Baseline, LS Mean (Week 12): −5.0; YBOCS Total Change from Baseline, LS Mean [3]: −7.0 points; YBOCS Total Change from Baseline, Troriluzole vs Placebo Difference Estimate [3]: −2.4; safety profile (in vivo): safe and well tolerated
